Drawing on patent US20230233569A1 (Revolution Medicines, Inc., priority 2020, published 2023), this text covers IC50 for 5 compounds.

Read-outs that look alike come from different tables or passages of the source.

Holding throughout (experiment): Ras-Raf disruption / FRET / MOA assay (BRAF RBD)
Assay type in all cases: biochemical

One experiment addresses KRAS G12V (Homo sapiens, UniProt P01116+P62937, G12V). The settings on record: with Cyclophilin A. Put shortly:
(§1)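 TR-FRET in 25 mM HEPES pH 7.3, 100 mM NaCl, 5 mM MgCl2, 0.1% BSA, 0.002% Tween20 with 25 μM Cyclophilin A, 12.5 nM His6-Ras-GMPPNP, 50 nM GST-BRAF RBD; compound 10-point 3-fold series from 30 μM. After 3 h at 25 °C, Eu anti-His/APC anti-GST added for 1.5 h; IC50 from ratio decrease versus DMSO.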

For another experiment, the target named is KRAS Q61H (Homo sapiens, UniProt P01116+P62937, Q61H). Put shortly:
as §1

The target in a further experiment is KRAS G12S (Homo sapiens, UniProt P01116+P62937, G12S). The note with it: with Cyclophilin A. Put shortly: as §1
KRAS G12S, sequence (P01116 1-169 isoform P01116-2 G12S limits assumed): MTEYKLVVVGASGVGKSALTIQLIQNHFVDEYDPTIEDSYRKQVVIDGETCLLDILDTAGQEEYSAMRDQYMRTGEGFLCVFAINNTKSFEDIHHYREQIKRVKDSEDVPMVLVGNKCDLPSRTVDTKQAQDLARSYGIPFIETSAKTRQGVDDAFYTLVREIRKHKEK
KRAS G12S, sequence (P62937 whole entry): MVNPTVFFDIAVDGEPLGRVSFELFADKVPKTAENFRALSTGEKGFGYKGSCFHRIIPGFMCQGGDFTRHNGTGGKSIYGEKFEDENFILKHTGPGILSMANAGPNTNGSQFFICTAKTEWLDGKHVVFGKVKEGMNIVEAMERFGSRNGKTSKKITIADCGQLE
The next experiment addresses NRAS WT (Homo sapiens, UniProt P01111+P62937). Put shortly:
as §1

The next experiment concerns the target KRAS WT (Homo sapiens, UniProt P01116+P62937). The note with it: with Cyclophilin A. Put shortly: as §1
The next experiment addresses KRAS G13C (Homo sapiens, UniProt P01116+P62937, G13C). The settings on record: with Cyclophilin A. The method in brief:
as §1

In the next experiment the target is NRAS Q61K (Homo sapiens, UniProt P01111+P62937, Q61K). Put shortly:
as §1

For another experiment, the target named is NRAS Q61R (Homo sapiens, UniProt P01111+P62937, Q61R). Put shortly:
as §1

For a further experiment, the target named is NRAS G12C (Homo sapiens, UniProt P01111+P62937, G12C). Put shortly:
as §1

A further experiment concerns the target KRAS G12D (Homo sapiens, UniProt P01116+P62937, G12D). The settings on record: with Cyclophilin A. Put shortly:
as §1

The next experiment concerns the target KRAS G13D (Homo sapiens, UniProt P01116+P62937, G13D). The settings on record: with Cyclophilin A. The method in brief:
as §1

In a further experiment the target is KRAS G12C (Homo sapiens, UniProt P01116+P62937, G12C). The settings on record: with Cyclophilin A. The method in brief: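 His6-K-Ras G12C-GMPPNP (12.5 nM), GST-BRAF RBD (50 nM) and tagless Cyclophilin A (25 μM) incubated 3 h at 25 °C with compound (10-point 3-fold series from 30 μM), pH 7.3 HEPES buffer. Anti-His Eu/anti-GST APC added for 1.5 h; decreased TR-FRET ratio vs DMSO gives IC50.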
KRAS G12C, sequence (P01116 1-169 isoform P01116-2 G12C limits assumed): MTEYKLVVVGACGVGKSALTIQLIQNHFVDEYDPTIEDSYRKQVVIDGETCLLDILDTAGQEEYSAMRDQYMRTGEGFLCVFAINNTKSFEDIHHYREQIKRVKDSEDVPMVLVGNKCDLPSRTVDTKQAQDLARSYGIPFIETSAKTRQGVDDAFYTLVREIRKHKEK
KRAS G12C, sequence (P62937 whole entry): as the sequence (P62937 whole entry) above

Where [1] appears, read: KRAS G12V FRET data IC50, Ras-Raf disruption.
The mark [2] stands for this setting: KRAS G12S FRET data IC50, Ras-Raf disruption.
[3] abbreviates: KRAS WT FRET data IC50, Ras-Raf disruption.
Setting [4] is: KRAS G13C FRET data IC50, Ras-Raf disruption.
Where [5] appears, read: NRAS G12C FRET data IC50, NRAS G12C.
Setting [6] is: KRAS G12D FRET data IC50, Ras-Raf disruption.
Where [7] appears, read: KRAS G13D FRET data IC50, Ras-Raf disruption.
[8] abbreviates: KRAS G12C FRET data IC50, Ras-Raf disruption.

KRAS G13C, sequence (P01116 1-169 isoform P01116-2 G13C limits assumed): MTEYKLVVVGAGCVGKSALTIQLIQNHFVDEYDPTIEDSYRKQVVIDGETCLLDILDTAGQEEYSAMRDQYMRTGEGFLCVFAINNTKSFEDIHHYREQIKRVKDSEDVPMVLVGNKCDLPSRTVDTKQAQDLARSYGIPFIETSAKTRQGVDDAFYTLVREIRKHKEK
KRAS G13C, sequence (P62937 whole entry): as the sequence (P62937 whole entry) above
KRAS G12D, sequence (P01116 1-169 isoform P01116-2 G12D limits assumed): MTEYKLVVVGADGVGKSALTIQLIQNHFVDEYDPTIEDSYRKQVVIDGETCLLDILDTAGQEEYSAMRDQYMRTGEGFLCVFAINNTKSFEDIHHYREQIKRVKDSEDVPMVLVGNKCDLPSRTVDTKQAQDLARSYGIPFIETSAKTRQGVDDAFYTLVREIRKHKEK
KRAS G12D, sequence (P62937 whole entry): as the sequence (P62937 whole entry) above
KRAS WT, sequence (P01116 1-169 isoform P01116-2 limits assumed): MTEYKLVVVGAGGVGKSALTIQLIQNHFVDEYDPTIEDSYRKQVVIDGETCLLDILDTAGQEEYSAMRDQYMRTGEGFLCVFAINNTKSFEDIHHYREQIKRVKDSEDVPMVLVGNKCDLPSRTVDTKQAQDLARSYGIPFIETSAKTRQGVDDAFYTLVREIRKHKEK
KRAS WT, sequence (P62937 whole entry): as the sequence (P62937 whole entry) above
KRAS G13D, sequence (P01116 1-169 isoform P01116-2 G13D limits assumed): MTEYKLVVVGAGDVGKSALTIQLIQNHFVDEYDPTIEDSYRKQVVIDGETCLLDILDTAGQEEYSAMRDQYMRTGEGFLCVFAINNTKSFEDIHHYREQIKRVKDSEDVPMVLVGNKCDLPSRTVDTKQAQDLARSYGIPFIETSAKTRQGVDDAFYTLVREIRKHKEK
KRAS G13D, sequence (P62937 whole entry): as the sequence (P62937 whole entry) above
KRAS Q61H, sequence (P01116 1-169 isoform P01116-2 Q61H limits assumed): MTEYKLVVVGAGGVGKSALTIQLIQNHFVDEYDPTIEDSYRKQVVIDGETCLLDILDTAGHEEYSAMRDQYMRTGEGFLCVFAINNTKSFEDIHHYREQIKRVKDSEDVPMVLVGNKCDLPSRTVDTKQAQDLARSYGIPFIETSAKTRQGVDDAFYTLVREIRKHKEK
KRAS Q61H, sequence (P62937 whole entry): as the sequence (P62937 whole entry) above
NRAS WT, sequence (P01111 whole entry): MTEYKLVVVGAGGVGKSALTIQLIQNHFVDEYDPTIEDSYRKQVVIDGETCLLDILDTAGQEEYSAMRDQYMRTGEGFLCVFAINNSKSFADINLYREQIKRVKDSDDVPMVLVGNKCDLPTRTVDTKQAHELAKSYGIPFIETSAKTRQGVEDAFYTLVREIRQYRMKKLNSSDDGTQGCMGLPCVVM
NRAS WT, sequence (P62937 whole entry): as the sequence (P62937 whole entry) above
NRAS Q61R, sequence (P01111 whole entry Q61R): as the sequence (P01111 whole entry) above, with Q61R counted along it
NRAS Q61R, sequence (P62937 whole entry): as the sequence (P62937 whole entry) above
NRAS Q61K, sequence (P01111 whole entry Q61K): as the sequence (P01111 whole entry) above, with Q61K counted along it
NRAS Q61K, sequence (P62937 whole entry): as the sequence (P62937 whole entry) above
KRAS G12V, sequence (P01116 1-169 isoform P01116-2 G12V limits assumed): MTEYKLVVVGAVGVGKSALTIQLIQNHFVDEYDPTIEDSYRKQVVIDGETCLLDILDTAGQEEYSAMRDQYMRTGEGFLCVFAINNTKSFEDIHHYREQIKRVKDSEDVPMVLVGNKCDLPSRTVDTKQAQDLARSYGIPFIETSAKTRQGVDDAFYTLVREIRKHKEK
KRAS G12V, sequence (P62937 whole entry): as the sequence (P62937 whole entry) above
NRAS G12C, sequence (P01111 whole entry G12C): as the sequence (P01111 whole entry) above, with G12C counted along it
NRAS G12C, sequence (P62937 whole entry): as the sequence (P62937 whole entry) above

A word on the IC50: it is the point on the concentration scale where inhibition reaches its midpoint. Consider `CCn1c(-c2cccnc2[C@H](C)OC)c2c3cc(ccc31)-c1cc(O)cc(c1)C[C@H](NC(=O)[C@H](C(C)C)N(C)C(=O)C1CCN(S(=O)(=O)[C@@H]3CN3C)CC1)C(=O)N1CCC[C@H](N1)C(=O)OCC(C)(C)C2` (single isomer, unassigned) [Example 119], for which the IC50 lay within 0.1 to 1 µM on KRAS G12V (Ras-Raf disruption, read-out: KRAS G12V FRET data IC50); 0.01 to 0.1 µM on KRAS Q61H (KRAS Q61H, read-out: KRAS Q61H FRET data IC50); 0.1 to 1 µM on KRAS G12S (Ras-Raf disruption, read-out: KRAS G12S FRET data IC50); 0.1 to 1 µM on NRAS WT (NRAS WT, read-out: NRAS WT FRET data IC50); 0.1 to 1 µM at KRAS WT (Ras-Raf disruption, read-out: KRAS WT FRET data IC50); 0.01 to 0.1 µM on KRAS G13C (Ras-Raf disruption, read-out: KRAS G13C FRET data IC50). The IC50 at NRAS Q61K (NRAS Q61K, read-out: NRAS Q61K FRET data IC50) fell in the range of 0.1 to 1 µM; on NRAS Q61R (NRAS Q61R, read-out: NRAS Q61R FRET data IC50), 1 to 10 µM; on NRAS G12C (NRAS G12C, read-out: NRAS G12C FRET data IC50) it was 0.1 to 1 µM; on KRAS G12D (Ras-Raf disruption, read-out: KRAS G12D FRET data IC50), 1 to 10 µM; at KRAS G13D (Ras-Raf disruption, read-out: KRAS G13D FRET data IC50), 0.1 to 1 µM; on KRAS G12C (Ras-Raf disruption, read-out: KRAS G12C FRET data IC50), 0.01 to 0.1 µM.

For the compound `CCn1c(-c2cccnc2[C@H](C)OC)c2c3cc(ccc31)-c1cc(O)cc(c1)C[C@H](NC(=O)[C@H](C1CCCC1)N(C)C(=O)CN(C)C(=O)[C@@H]1N[C@@H]1C1(C#N)CC1)C(=O)N1CCC[C@H](N1)C(=O)OCC(C)(C)C2` (single isomer, unassigned) [Example 308], the IC50 at KRAS G12V (setting [1]) lay within 0.1 to 1 µM; against KRAS Q61H, 0.01 to 0.1 µM; at KRAS G12S (setting [2]), 0.01 to 0.1 µM; against NRAS WT, 0.01 to 0.1 µM; on KRAS WT (setting [3]), 0.01 to 0.1 µM; on KRAS G13C (setting [4]), 0.01 to 0.1 µM. Moreover, the IC50 at NRAS Q61K was in the range of 0.1 to 1 µM; on NRAS Q61R, 0.1 to 1 µM; against NRAS G12C (setting [5]), 0.01 to 0.1 µM; against KRAS G12D (setting [6]), 0.1 to 1 µM; against KRAS G13D (setting [7]), 0.1 to 1 µM; against KRAS G12C (setting [8]) it was 0.01 to 0.1 µM.

Regarding `CCn1c(-c2cccnc2[C@H](C)OC)c2c3cc(ccc31)-c1cc(O)cc(c1)C[C@H](NC(=O)[C@H](C1CCCC1)N(C)C(=O)CN(C)C(=O)[C@H]1N[C@H]1C1(OC)CC1)C(=O)N1CCC[C@H](N1)C(=O)OCC(C)(C)C2` (single isomer, unassigned) [Example 322], the IC50 at KRAS G12V (setting [1]), at KRAS Q61H, at KRAS G12S (setting [2]), against NRAS WT, against KRAS WT (setting [3]) and against KRAS G13C (setting [4]) was 0.01 to 0.1 µM in each case. Besides, the half-maximal inhibitory concentration (IC50) on NRAS Q61K lay in the range of 0.1 to 1 µM; against NRAS Q61R, 0.1 to 1 µM; on NRAS G12C (setting [5]), 0.01 to 0.1 µM; on KRAS G12D (setting [6]) it was 0.1 to 1 µM; on KRAS G13D (setting [7]), 0.1 to 1 µM; against KRAS G12C (setting [8]), 0.01 to 0.1 µM.

Consider `CCn1c(-c2cccnc2[C@H](C)OC)c2c3cc(ccc31)-c1cc(O)cc(c1)C[C@H](NC(=O)[C@H](C1CCCC1)N(C)C(=O)CN(C)C(=O)[C@@H]1N[C@@H]1C1(OC)CC1)C(=O)N1CCC[C@H](N1)C(=O)OCC(C)(C)C2` (single isomer, unassigned) [Example 323], for which the IC50 on KRAS G12V (setting [1]), against KRAS Q61H, against KRAS G12S (setting [2]), against NRAS WT, on KRAS WT (setting [3]) and against KRAS G13C (setting [4]) was 0.01 to 0.1 µM each time. For the same compound, the IC50 was in the range of 0.1 to 1 µM against NRAS Q61K; 0.1 to 1 µM on NRAS Q61R; 0.01 to 0.1 µM on NRAS G12C (setting [5]); 0.1 to 1 µM on KRAS G12D (setting [6]); 0.1 to 1 µM against KRAS G13D (setting [7]); 0.01 to 0.1 µM at KRAS G12C (setting [8]).

In the case of `CCn1c(-c2cccnc2[C@H](C)OC)c2c3cc(ccc31)-c1cc(O)cc(c1)C[C@H](NC(=O)[C@H](C(C)C)N(C)C(=O)C13CC(CN1C(=O)[C@@H]1CN1)C3)C(=O)N1CCC[C@H](N1)C(=O)OCC(C)(C)C2` [Example 163], the IC50 lay in the range of 0.1 to 1 µM against KRAS G12V (setting [1]); 0.01 to 0.1 µM at KRAS Q61H; 0.1 to 1 µM on KRAS G12S (setting [2]); 0.1 to 1 µM against NRAS WT; 0.1 to 1 µM against KRAS WT (setting [3]); 0.1 to 1 µM against KRAS G13C (setting [4]). For the same compound, the half-inhibitory concentration (IC50) against NRAS Q61K, against NRAS Q61R, on NRAS G12C (setting [5]), against KRAS G12D (setting [6]), against KRAS G13D (setting [7]) and at KRAS G12C (setting [8]) was 0.1 to 1 µM throughout.
